Assay results: US8785653B2, “(3-aryl-1H-1,2,4-triazol-5-yl)-linked heterocycle derivatives” (H. Lundbeck A/S, priority 2009, dated 2014)

Target: T1, PDE10A enzyme (Homo sapiens, UniProt Q9Y233)
T1 construct: made in house; host or cells: E. coli BL21(DE3)
Experiment: PDE10A inhibition assay
Assay type: biochemical
Details: 3H-labelled cAMP substrate 5 nM, SPA beads, one hr at room temperature
Description: Active PDE10A enzyme is prepared in a number of ways for use in PDE assays (Loughney, K. et al. Gene 1999, 234, 109-117; Fujishige, K. et al. Eur J Biochem. 1999, 266, 1118-1127 and Soderling, S. et al. Proc. Natl. Acad. Sci. 1999, 96, 7071-7076). PDE10A can be expressed as full-length proteins or as truncated proteins, as long as they express the catalytic domain. PDE10A can be prepared in different cell types, for example insect cells or E. coli. An example of a method to obtain catalytically active PDE10A is as follows: The catalytic domain of human PDE10A (amino acids 440-779 from the sequence with accession number NP 006652) is amplified from total human brain total RNA by standard RT-PCR and is cloned into the BamH1 and Xho1 sites of the pET28a vector (Novagen). Expression in coil is performed according to standard protocols. Briefly, the expression plasmids are transformed into the BL21(DE3) E. coli strain, and 50 mL cultures inoculated with the cells allowed to grow to an OD600 of 0.4-0.6 before protein expression is induced with 0.5mM IPTG. Following induction, the cells are incubated overnight at room temperature, after which the cells are collected by centrifugation. Cells expressing PDE10A are resuspended in 12 mL (50 mM TRIS-HCl-pH8.0, 1 mM MgCl2 and protease inhibitors). The cells are lysed by sonication, and after all cells are lysed, TritonX100 is added according to Novagen protocols.
A PDE10A assay may for example, be performed as follows: The assay is performed in 60 uL samples containing a fixed amount of the relevant PDE enzyme (sufficient to convert 20-25% of the cyclic nucleotide substrate), a buffer (50 mM HEPES7.6; 10 mM MgCl2; 0.02% Tween20), 0.1 mg/mI BSA, 225 pCi of ^3H-labelled cyclic nucleotide substrate, tritium labeled cAMP to a final concentration of 5 nM and varying amounts of inhibitors. Reactions are initiated by addition of the cyclic nucleotide substrate, and reactions are allowed to proceed for one hr at room temperature before being terminated through mixing with 15 uL 8 mg/mL yttrium silicate SPA beads (Amersham). The beads are allowed to settle for one hr in the dark before the plates are counted in a Wallac 1450 Microbeta counter. The measured signal can be converted to activity relative to an uninhibited control (100%) and IC50 values can be calculated using the XIfit extension to EXCEL.

T1 sequence (Q9Y233 716-1055): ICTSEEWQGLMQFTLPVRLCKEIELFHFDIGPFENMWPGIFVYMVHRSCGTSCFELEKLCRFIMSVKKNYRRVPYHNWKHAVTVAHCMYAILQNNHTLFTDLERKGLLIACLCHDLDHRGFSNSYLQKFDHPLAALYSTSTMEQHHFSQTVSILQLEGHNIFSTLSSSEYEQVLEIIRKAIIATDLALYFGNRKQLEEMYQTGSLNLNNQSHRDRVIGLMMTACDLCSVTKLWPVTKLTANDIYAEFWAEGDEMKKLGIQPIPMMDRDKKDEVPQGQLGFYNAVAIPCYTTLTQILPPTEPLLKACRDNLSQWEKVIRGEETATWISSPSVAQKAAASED

Row | SMILES | IC50
1 | Cc1cccc2nc(CCc3nc(-c4ccccc4)nn3C)nn12 [5-Methyl-2-[2-(2-methyl-5-phenyl-2H-[1,2,4]triazol-3-yl)-ethyl]-[1,2,4]triazolo[1,5-a]pyridine] | 0.22 µM
2 | Cc1ncc(C)n2nc(CCc3nc(-c4cccnc4)nn3C)nc12 [5,8-Dimethyl-2-[2-(2-methyl-5-pyridin-3-yl-2H-[1,2,4]triazol-3-yl)-ethyl]-[1,2,4]triazolo[1,5-a]pyrazine] | 0.11 µM
3 | Cc1ncc(C)n2nc(CCc3nc(-c4ccccn4)nn3C)nc12 [5,8-Dimethyl-2-[2-(2-methyl-5-pyridin-2-yl-2H-[1,2,4]triazol-3-yl)-ethyl]-[1,2,4]triazolo[1,5-a]pyrazine] | 0.039 µM
4 | Cc1ccc(C)n2nc(CCc3nc(-c4ccccc4)nn3C)nc12 [5,8-Dimethyl-2-[2-(2-methyl-5-phenyl-2H-[1,2,4]triazol-3-yl)-ethyl]-[1,2,4]triazolo[1,5-a]pyridine] | 0.0067 µM
5 | COc1ccc(C)n2nc(CCc3nc(-c4ccccc4)nn3C(C)C)nc12 [2-[2-(2-Isopropyl-5-phenyl-2H-[1,2,4]triazol-3-yl)-ethyl]-8-methoxy-5-methyl-[1,2,4]triazolo[1,5-a]pyridine] | 0.056 µM
6 | Cc1ncc(C)n2nc(CCc3nc(-c4ncccn4)nn3C)nc12 [5,8-Dimethyl-2-[2-(2-methyl-5-pyrimidin-2-yl-2H-[1,2,4]triazol-3-yl)-ethyl]-[1,2,4]triazolo[1,5-a]pyrazine] | 0.053 µM
7 | CCc1ccc(C)n2nc(CCc3nc(-c4ccccc4)nn3C(C)C)nc12 [8-Ethyl-2-[2-(2-isopropyl-5-phenyl-2H-[1,2,4]triazol-3-yl)-ethyl]-5-methyl-[1,2,4]triazolo[1,5-a]pyridine] | 0.04 µM
8 | Cc1csc(-c2nc(CCc3nc4c(C)ncc(C)n4n3)n(C)n2)n1 [5,8-Dimethyl-2-{2-[2-methyl-5-(4-methyl-thiazol-2-yl)-2H-[1,2,4]triazol-3-yl]-ethyl}-[1,2,4]triazolo[1,5-a]pyrazine] | 0.076 µM
9 | CCc1ccc(C)n2nc(CCc3nc(-c4ccccc4)nn3C)nc12 [8-Ethyl-5-methyl-2-[2-(2-methyl-5-phenyl-2H-[1,2,4]triazol-3-yl)-ethyl]-[1,2,4]triazolo[1,5-a]pyridine] | 0.0075 µM
10 | COc1ccc(C)n2nc(CCc3nc(-c4ccccc4)nn3CCO)nc12 [2-{5-[2-(8-Methoxy-5-methyl-[1,2,4]triazolo[1,5-a]pyridin-2-yl)-ethyl]-3-phenyl-[1,2,4]triazol-1-yl}-ethanol] | 0.023 µM
11 | CCOC(=O)Cn1nc(-c2ccccc2)nc1CCc1nc2c(OC)ccc(C)n2n1 [{5-[2-(8-Methoxy-5-methyl-[1,2,4]triazolo[1,5-a]pyridin-2-yl)-ethyl]-3-phenyl-[1,2,4]triazol-1-yl}-acetic acid ethyl ester] | 0.081 µM
12 | Cc1ncc(C)n2nc(/C=C/c3nc(-c4ccco4)n(C)n3)nc12 [2-[(E)-2-(5-Furan-2-yl-1-methyl-1H-[1,2,4]triazol-3-yl)-vinyl]-5,8-dimethyl-[1,2,4]triazolo[1,5-a]pyrazine] | 0.06 µM
13 | COc1ccc(C)n2nc(CSc3nc(-c4ccccc4)n[nH]3)nc12 [8-Methoxy-5-methyl-2-(5-phenyl-2H-[1,2,4]triazol-3-ylsulfanylmethyl)-[1,2,4]triazolo[1,5-a]pyridine] | 0.052 µM
14 | Cc1ncc(C)n2nc(CCc3nc(-c4ccccc4)nn3CCO)nc12 [2-{5-[2-(5,8-Dimethyl-[1,2,4]triazolo[1,5-a]pyrazin-2-yl)-ethyl]-3-phenyl-[1,2,4]triazol-1-yl}-ethanol] | 0.069 µM
15 | Cc1ncc(C)n2nc(CCc3nc(-c4ccccc4)nn3CCCN)nc12 [3-{5-[2-(5,8-Dimethyl-[1,2,4]triazolo[1,5-a]pyrazin-2-yl)-ethyl]-3-phenyl-[1,2,4]triazol-1-yl}-propylamine] | 0.1 µM
16 | Cc1ncc(C)n2nc(CCc3nc(-c4ccccc4)nn3CCC#N)nc12 [3-{5-[2-(5,8-Dimethyl-[1,2,4]triazolo[1,5-a]pyrazin-2-yl)-ethyl]-3-phenyl-[1,2,4]triazol-1-yl}-propionitrile] | 0.025 µM
17 | Cc1ncc(C)n2nc(CSc3nc(-c4ccccc4)n[nH]3)nc12 [5,8-Dimethyl-2-(5-phenyl-2H-[1,2,4]triazol-3-ylsulfanylmethyl)-[1,2,4]triazolo[1,5-a]pyrazine] | 0.053 µM
18 | Cc1ncc(C)n2nc(CCc3nc(-c4ccccc4)nn3C)nc12 [5,8-Dimethyl-2-[2-(2-methyl-5-phenyl-2H-[1,2,4]triazol-3-yl)-ethyl]-[1,2,4]triazolo[1,5-a]pyrazine] | 0.015 µM

Now from value to molecule:

Row | IC50 | SMILES
19 | 0.12 µM | Cc1cnc(-c2nc(CCc3nc4c(C)ncc(C)n4n3)n(C)n2)s1 [5,8-Dimethyl-2-{2-[2-methyl-5-(5-methyl-thiazol-2-yl)-2H-[1,2,4]triazol-3-yl]-ethyl}-[,2,4]triazolo[1,5-a]pyrazine]
20 | 0.036 µM | Cc1cnc(C)n2nc(CCc3nc(-c4ccccc4)nn3C)nc12 [5,8-Dimethyl-2-[2-(2-methyl-5-phenyl-2H-[1,2,4]triazol-3-yl)-ethyl]-[1,2,4]triazolo[1,5-c]pyrimidine]
21 | 0.045 µM | COc1ccc(C)n2nc(CCc3nc(-c4ccccc4)nn3CCC#N)nc12 [3-{5-[2-(8-Methoxy-5-methyl-[1,2,4]triazolo[1,5-a]pyridin-2-yl)-ethyl]-3-phenyl-[1,2,4]triazol-1-yl}-propionitrile]
22 | 0.18 µM | COc1ccc(C)n2nc(CCc3nc(-c4ccccc4)nn3CC(F)(F)F)nc12 [8-Methoxy-5-methyl-2-{2-[5-phenyl-2-(2,2,2-trifluoro-ethyl)-2H-[1,2,4]triazol-3-yl]-ethyl}-[1,2,4]triazolo[1,5-a]pyridine]
23 | 0.025 µM | Cc1ncc(C)n2nc(CCc3nc(-c4cscn4)nn3C)nc12 [5,8-Dimethyl-2-[2-(2-methyl-5-thiazol-4-yl-2H-[1,2,4]triazol-3-yl)-ethyl-]-[1,2,4]triazolo[1,5-a]pyrazine]
24 | 0.038 µM | Cc1ncc(C)n2nc(CCc3nc(-c4ccco4)n(C)n3)nc12 [2-[2-(5-Furan-2-yl-1-methyl-1H-[1,2,4]triazol-3-yl)-ethyl]-5,8-dimethyl-[1,2,4]triazolo[1,5-a]pyrazine]
25 | 0.17 µM | Cc1cccn2nc(CCc3nc(-c4ccccc4)nn3C)nc12 [8-Methyl-2-[2-(2-methyl-5-phenyl-2H-[1,2,4]triazol-3-yl)-ethyl]-[1,2,4]triazolo[1,5-a]pyridine]
26 | 0.014 µM | COCCn1nc(-c2ccccc2)nc1CCc1nc2c(C)ncc(C)n2n1 [2-{2-[2-(2-Methoxy-ethyl)-5-phenyl-2H-[1,2,4]triazol-3-yl]-ethyl}-5,8-dimethyl-[1,2,4]triazolo[1,5-a]pyrazine]
27 | 0.025 µM | COc1ccc(C)n2nc(CCc3nc(-c4ccccc4)nn3C)nc12 [8-Methoxy-5-methyl-2-[2-(2-methyl-5-phenyl-2H-[1,2,4]triazol-3-yl)-ethyl]-[1,2,4]triazolo[1,5-a]pyridine]
28 | 0.0056 µM | Cc1ncc(C)n2nc(CCc3nc(-c4cccs4)nn3C)nc12 [5,8-Dimethyl-2-[2-(2-methyl-5-thiophen-2-yl-2H-[1,2,4]triazol-3-yl)-etnyl]-[1,2,4]triazolo[1,5-a]pyrazine]
29 | 0.2 µM | Cc1cccc2nc(CSc3nc(-c4ccccc4)n[nH]3)nn12 [5-Methyl-2-(5-phenyl-2H-[1,2,4]triazol-3-ylsulfanylmethyl)-[1,2,4]triazolo[1,5-a]pyridine]
30 | 0.026 µM | Cc1ncc(C)n2nc(CCc3nc(-c4cncs4)nn3C)nc12 [5,8-Dimethyl-2-[2-(2-methyl-5-thiazol-5-yl-2H-[1,2,4]triazol-3-yl)-ethyl]-[1,2,4]triazolo[1,5-a]pyrazine]
31 | 0.15 µM | CCc1ccc(C)n2nc(CCc3nc(-c4ccccc4)cn3CCCN)nc12 [3-{2-[2-(8-Ethyl-5-methyl-[1,2,4]triazolo[1,5-a]pyridin-2-yl)-ethyl]-4-phenyl-imidazol-1-yl}-propylamine]
32 | 0.059 µM | Cc1cc(C)n2nc(CCc3nc(-c4ccccc4)nn3C)nc2n1 [5,7-Dimethyl-2-[2-(2-methyl-5-phenyl-2H-[1,2,4]triazol-3-yl)-ethyl]-[1,2,4]triazolo[1,5-a]pyrimidine]
33 | 0.036 µM | Cc1ncc(C)n2nc(CCc3nc(-c4nccs4)nn3C)nc12 [5,8-Dimethyl-2-[2-(2-methyl-5-thiazol-2-yl-2H-[1,2,4]triazol-3-yl)-ethyl]-[1,2,4]triazolo[1,5-a]pyrazine]
34 | 0.56 µM | COc1cccn2nc(CCc3nc(-c4ccccc4)nn3C)nc12 [8-Methoxy-2-[2-(2-methyl-5-phenyl-2H-[1,2,4]triazol-3-yl)-ethyl]-[1,2,4]triazolo[1,5-a]pyridine]
